This test has as its system L1210 cells. Put plainly: Nucleoside transport inhibition assay: inhibition of 3H-thymidine uptake, with or without AGP or HSA. It counts as cell-based, murine. Particulars: for inhibition at 0.25 µM: L1210, 0.25 μM compound; for inhibition at 1 µM: L1210, 1 μM compound; for inhibition at 10 µM: L1210, 10 μM compound; for inhibition at 0.1 µM: L1210, 0.1 μM compound. As for the experimental part: In vitro activity. […] For testing the compounds an established nucleoside transport assay involving measurement of thymidine uptake was adapted. Murine leukaemia L1210 cells were used in this assay as their nucleoside transport characteristics are well known. This assay for measuring thymidine uptake used a modification of the rapid mixing technique of Wohleheuter, R. […] Materials used included a transport buffer comprising 130 mM NaCl, 5 mM KC1, 1 mM MgCl, 5 mM NaH2 PO4, 10 mM glucose and 10 mM HEPES. This buffer was made up as sterile 5× concentrate and reconstituted in distilled water and adjusted to pH 7.4 immediately prior to carrying out the assay. […] The supernatant was aspirated and the cells were washed with ice-cold transport buffer and centrifuged again at 1000 rpm for 5 minutes at 4° C. The supernatant was removed and the cells were resuspended in ice-cold transport buffer to give a final cell density of 2-4×10^7 cells/mi. Cells were left on ice for 30 minutes recovery prior to starting the assay. […] The suspension was mixed well and 100 μl was layered onto 150 μl silicone oil (9:11 Dow Corning 556 (Sp.Gr. 0.98):Dow Corning 550 (Sp.Gr. 1.068) (final Sp.Gr. 1.028) overlaying 50 μl 3M KOH in 6 replicate 0.5 ml microfuge tubes. […] The tubes were immediately transferred to a microfuge (Eppendorf) and spun at 12000 rpm for 2 minutes to pellet the cells through the oil and into the KOH. The tubes were capped and the cells left to solubilise in the KOH for 1 hour. Cell number and viability for each run was determined by haemocytometer counting using trypan blue exclusion. […] The tubes were capped and cut in the oil layer such that the bottom portion (cells solubilised in KOH) fell into a 20 ml scintillation vial. 1 ml 0.25M acetic acid followed by 1 ml air was injected into the tube using a 2 ml syringe and 23-gauge needle to disperse and neutralise the KOH-solubilisedcells. 10 ml of Optiphase HiSafe™ scintillant was added and the vials capped and shaken. […] The [^14 C]:[^3 H] ratio was used to calculate the amount of non-transported contaminating [^3 H]thymidine in the extracellular space.

Setting [1] is: Mus musculus, no AGP, read-out: % Inhibition of 3H-thymidine uptake, No AGP.
The mark [2] stands for this setting: Mus musculus, +5 mg/ml AGP vs no AGP, read-out: % Reduction (of inhibition by AGP).
Setting [3] is: Mus musculus, +5 mg/ml AGP, read-out: % Inhibition of 3H-thymidine uptake, +5 mg/ml AGP.
Where [4] appears, read: +5 mg/ml AGP, compound concentration not assignable from the table.
[5] abbreviates: 0.1 μM compound, no AGP, 0.1 µM.

Where “and” joins values, the source holds several entries; their conditions need not be identical. Equal values may be shown once. Read-outs that look alike come from different tables or passages of the source.

Consider `COc1ccc(CNc2nc(OCC(C)O)nc3c(NCc4ccc(OC)cc4)nc(OCC(C)O)nc23)cc1` (centres unmarked) [NU3087, 2,6-Di(2'-hydroxypropoxy)-4,8-bis(4'-methoxybenzylamino)pyrimidopyrimidine], for which the inhibition at 0.25 µM by setting is: (Mus musculus, +0.125 mg/ml AGP vs no AGP, read-out: % Reduction (of inhibition by AGP)) 0%; (Mus musculus, +0.125 mg/ml AGP, read-out: % Inhibition of 3H-thymidine uptake, +0.125 mg/ml AGP) 20 ± 2%; under setting [1], 17%. The inhibition at 1 µM under setting [1] is 68 ± 14%. In addition, the IC50 (Mus musculus, L1210, no AGP) was about 300 nM. In addition, the “Effect of AGP on the inhibition of thymidine uptake” value (in words) is “no significant reduction”.
Regarding `CN(Cc1ccccc1)c1nc(OCCCO)nc2c(N(C)Cc3ccccc3)nc(OCCCO)nc12` [NU3088, 2,6-Di(3'-hydroxypropoxy)-4,8-di[(N-benzylmethyl)amino]pyrimidopyrimidine], the “% Inhibition of 3H-thymidine uptake, No AGP” value (shortened to “% Inhibition … No AGP”) was 52 ± 19% (1 μM compound, no AGP); 100% and 77% (10 μM compound, no AGP, 10 µM). Where the note is “no AGP”, the IC50 is 1440 nM.
Take `COc1ccc(CNc2nc(OCCO)nc3c(NCc4ccc(OC)cc4)nc(OCCO)nc23)cc1` [NU3089, 2,6-Di(2'-hydroxyethoxy)-4,8-di(4'-methoxybenzylamino)pyrimidopyrimidine]: the “% Inhibition … No AGP” value (1 μM compound, no AGP, 1 µM) is 24 ± 18%. Also, the inhibition at 1 µM is 0% under setting [2], 28 ± 25% under setting [3] and 40 ± 19% under setting [1]. Further, the inhibition at 10 µM under setting [1] is 88 ± 11%. Also, the IC50 reads like this: (Mus musculus, L1210, no AGP) 670 nM; (no AGP) 1200 nM.
In the case of `COc1ccc(CN(C)c2nc(OCCCO)nc3c(N(C)Cc4ccc(OC)cc4)nc(OCCCO)nc23)cc1` [NU3090, 2,6-Di(3'-hydroxypropoxy)-4,8-di[(N-4'-methoxybenzylmethyl)amino]pyrimidopyrimidine], the “% Reduction (of inhibition by AGP)” value (1 μM compound, +5 mg/ml AGP vs no AGP) is reported as 53%. In addition, where the note is “1 μM compound, +5 mg/ml AGP, 1 µM”, the “% Inhibition of 3H-thymidine uptake, +5 mg/ml AGP” value (“% Inhibition … +5 mg/ml AGP” below) is 32 ± 10% and 32%. Further, the “% Inhibition … No AGP” value was 74 ± 18% and 69 ± 19% (1 μM compound, no AGP, 1 µM); 100 ± 0% (10 μM compound, no AGP). Besides, the IC50 (no AGP) is 220 nM and 240 nM.
For `CCCOc1nc(N(C)Cc2ccccc2)c2nc(OCCC)nc(N(C)Cc3ccccc3)c2n1` [NU3091, 2,6-Di(n)propoxy-4,8-di[(N-benzylmethyl)amino]-pyrimidopyrimidine], for the setting “1 μM compound, no AGP”, the “% Inhibition … No AGP” value is given as “Inactive”. For the same compound, the inhibition at 10 µM under setting [1] amounted to 8.2 ± 1.1%.
Turning to `COCCOc1nc(N(C)Cc2ccccc2)c2nc(OCCOC)nc(N(C)Cc3ccccc3)c2n1` [NU3092, 2,6-Di(-2'-methoxyethoxy)-4,8-di[(N-benzylmethyl)amino]-pyrimidopyrimidine], under setting [1], the inhibition at 1 µM amounted to 17 ± 8% and the inhibition at 10 µM was determined as 68 ± 8%. Moreover, the IC50 (Mus musculus, L1210, no AGP) came to 5900 nM. The IC50 (no AGP) was found to be 3800 nM.
On to `COCCOc1nc(N2CCCCC2)c2nc(OCCOC)nc(N3CCCCC3)c2n1` [NU3093, 2,6-Di(-2'-methoxyethoxy)-4,8-dipiperidinopyrimidopyrimidine], for which the “% Inhibition … No AGP” value (10 μM compound, no AGP, 10 µM) is given as 68%. Further, under setting [1], the inhibition at 1 µM was 20 ± 6% and the inhibition at 10 µM came out at 63%. Also, under “Mus musculus, L1210, no AGP”, the midpoint of inhibition, the IC50, lay at 4600 nM.
`COCCOc1nc(N(Cc2ccccc2)Cc2ccccc2)c2nc(OCCOC)nc(N(Cc3ccccc3)Cc3ccccc3)c2n1` [NU3094, 2,6-di(-2-methoxyethoxy)-4,8-bis(dibenzylamino) pyrimidopyrimidine]: under setting [1], the inhibition at 1 µM came to 9 ± 10% and the inhibition at 10 µM worked out at 15 ± 4%.
As to `COCCOc1nc(NCc2ccccc2)c2nc(OCCOC)nc(NCc3ccccc3)c2n1` [NU3095, 2,6-di(-2-methoxyethoxy)-4,8-dibenzylaminopyrimidopyrimidine], under setting [1], the inhibition at 1 µM is 31.2% and the inhibition at 10 µM is 78.4 ± 4.2%. Moreover, the IC50 (Mus musculus, L1210, no AGP) was determined as 2400 nM.
As for `COc1ccc(CN(C)c2nc(OCCCO)nc3c(N(C)Cc4ccc(OC)c(OC)c4)nc(OCCCO)nc23)cc1OC` [NU3096, 2,6-di(-3-hydroxypropoxy)-4,8-bis[(-3,4-dimethoxybenzyl)-N-methylamino]pyrimidopyrimidine], the inhibition at 1 µM under setting [1] was found to be 54 ± 2%. The compound further returned an IC50 (Mus musculus, L1210, no AGP) of 750 nM.
For `COc1ccc(CNc2nc(OCCCO)nc3c(NCc4ccc(OC)cc4)nc(OCCCO)nc23)cc1` [NU3097, 2,6-di(-3-hydroxypropoxy)-4,8-di(-4-methoxybenzylamino)pyrimidopyrimidine], the “% Inhibition … No AGP” value (1 μM compound, no AGP, 1 µM) stood at 62%. Moreover, the inhibition at 1 µM under setting [2] was 21%, the inhibition at 1 µM under setting [3] was found to be 49% and the inhibition at 1 µM under setting [1] worked out at 61 ± 8%. Further, the IC50 is, setting by setting: (Mus musculus, L1210, no AGP) 460 nM; (no AGP) 820 nM.
As for `CN(Cc1ccccc1)c1nc(OCCO)nc2c(N(C)Cc3ccccc3)nc(OCCO)nc12` [NU3098, 2,6-di(-2-hydroxyethoxy)-4,8-di(N-methylbenzylamino)pyrimidopyrimidine], the “% Inhibition … No AGP” value (10 μM compound, no AGP, 10 µM) is recorded as 87 ± 11%. For the same compound, the inhibition at 1 µM under setting [1] came to 44%. The compound further displayed an IC50 (no AGP) of 1870 nM.
With `COc1ccc(CNc2nc(NCCO)nc3c(NCc4ccc(OC)cc4)nc(NCCO)nc23)cc1` [NU3099, 2,6-Di-(2-hydroxyethyl)amino-4,8-di-[4-methoxybenzyl]-aminopyrimidopyrimidine], the “% Inhibition … No AGP” value (1 μM compound, no AGP, 1 µM) was 52% and 62% and 65%. Also, under setting [4], the “% Inhibition … +5 mg/ml AGP” value is 30% and 35%. In addition, the inhibition at 0.1 µM (Mus musculus, no AGP) is 5%. For the same compound, the inhibition at 1 µM under setting [1] amounted to 54%. Besides, the IC50 is, setting by setting: (Mus musculus, L1210, no AGP) 930 nM; (no AGP) 1200 nM.
For the compound `COc1ccc(CN(C)c2nc(OCCCO)nc3c(N(C)Cc4ccc(OC)cc4)nc(OCCCO)nc23)cc1` [NU3100, 2,6-Di-(3-hydroxypropoxy)-4,8-di-(N-[4-methoxybenzyl]-N-methyl)aminopyrimidopyrimidine], the inhibition at 1 µM under setting [1] is 88%. This compound also yielded an IC50 (Mus musculus, L1210, no AGP) of 190 nM.
Regarding `OCCNc1nc(NCc2ccccc2)c2nc(NCCO)nc(NCc3ccccc3)c2n1` [NU3101, 2,6-Di-(2-hydroxyethylamino)-4,8-dibenzylaminopyrimidopyrimidine], the inhibition at 0.1 µM (Mus musculus, no AGP) worked out at 2%. The inhibition at 1 µM under setting [1] stood at 58%.
With `COc1ccc(CN(C)c2nc(N(CCO)CCO)nc3c(N(C)Cc4ccc(OC)cc4)nc(N(CCO)CCO)nc23)cc1` [NU3102, 2,6-bis-Diethanolamino-4,8-di-(N-[4-methoxybenzyl]-N-methyl)aminopyrimidopyrimidine], the “% Inhibition … No AGP” value is 20% under setting [5]; 57% (1 μM compound, no AGP, 1 µM); “insoluble” (10 μM compound, no AGP). For the setting “Mus musculus, no AGP”, this compound yielded an inhibition at 0.1 µM of 23%. Under setting [1], the inhibition at 1 µM was 51%. Moreover, the IC50 (Mus musculus, L1210, no AGP) was determined as 980 nM and it took 840 nM to reach half-maximal inhibition (no AGP) (IC50).
`CN(Cc1ccccc1)c1nc(OCCO)nc2c(N(C)Cc3ccccc3)nc(OCCO)nc12` [NU3103, 2,6-Di-(2-hydroxyethoxy)-4,8-di-(N-benzyl-N-methyl)aminopyrimidopyrimidine]: the “% Inhibition … No AGP” value under setting [5] amounted to 18%; the “% Inhibition … No AGP” value (1 μM compound, no AGP, 1 µM) was 50% and 60%; the “% Inhibition … No AGP” value (10 μM compound, no AGP, 10 µM) came out at 84%. Also, the “% Inhibition … +5 mg/ml AGP” value under setting [4] was 21% and 23%. Besides, under “Mus musculus, no AGP”, the inhibition at 0.1 µM is 12%. Moreover, under setting [1], the inhibition at 10 µM was 90%. Also, under “no AGP”, the IC50 was 1010 nM and 800 nM.

(Values after US6297250A, “Pyrimidopyrimidine compounds” (Newcastle University Ventures Limited, priority 1997, dated 2001).)
